These results are taken from the NIST ThermoML archive (doi:10.1016/j.jct.2015.04.027).

Series [1] can be described thus: xn = mol fraction of the nth substance listed. As to conditions: 100 kPa, Liquid, x2 = 0; for viscosity: Falling or rolling sphere viscometry; for mass density: Vibrating tube method.
The conditions of series [2]: 100 kPa, Liquid; for viscosity: Falling or rolling sphere viscometry; for mass density: Vibrating tube method.

± gives the expanded uncertainty stated by the source.

For the compound `CCCCO` [butan-1-ol] + CN(C)C(=[NH2+])N(C)C.c1c[n-]cn1, the viscosity in series [1] (293.15 K) stood at 2.918 ± 0.062 mPa·s; in series [1] (298.15 K), 2.566 ± 0.055 mPa·s; in series [1] (303.15 K), 2.272 ± 0.049 mPa·s; in series [1] (308.15 K), 2.024 ± 0.043 mPa·s; in series [1] (313.15 K) it was 1.81 ± 0.039 mPa·s. Besides, the mass density in series [1] (293.15 K) came out at 809.72 ± 0.16 kg/m3; in series [1] (298.15 K) it was 805.92 ± 0.16 kg/m3; in series [1] (303.15 K), 802.08 ± 0.16 kg/m3; in series [1] (308.15 K) it was 798.21 ± 0.16 kg/m3; in series [1] (313.15 K) it was 794.3 ± 0.17 kg/m3.

For the compound `CO` [methanol], the viscosity in series [2] (293.15 K) is recorded as 0.597 ± 0.013 mPa·s; in series [2] (298.15 K) it was 0.559 ± 0.012 mPa·s; in series [2] (303.15 K) it was 0.518 ± 0.011 mPa·s; in series [2] (308.15 K), 0.493 ± 0.011 mPa·s; in series [2] (313.15 K), 0.466 ± 0.01 mPa·s. Besides, the mass density in series [2] (293.15 K) is given as 791.35 ± 0.17 kg/m3; in series [2] (298.15 K) it was 786.67 ± 0.18 kg/m3; in series [2] (303.15 K) it was 781.94 ± 0.18 kg/m3; in series [2] (308.15 K), 777.2 ± 0.18 kg/m3; in series [2] (313.15 K), 772.42 ± 0.18 kg/m3.

For the compound `CCCO` [propan-1-ol], the viscosity in series [2] (293.15 K) was determined as 2.217 ± 0.047 mPa·s; in series [2] (298.15 K) it was 1.955 ± 0.042 mPa·s; in series [2] (303.15 K), 1.736 ± 0.037 mPa·s; in series [2] (308.15 K), 1.55 ± 0.033 mPa·s; in series [2] (313.15 K) it was 1.389 ± 0.03 mPa·s. The mass density is given as 803.75 ± 0.16 kg/m3 in series [2] (293.15 K); 799.71 ± 0.17 kg/m3 in series [2] (298.15 K); 795.65 ± 0.17 kg/m3 in series [2] (303.15 K); 791.56 ± 0.17 kg/m3 in series [2] (308.15 K); 787.42 ± 0.17 kg/m3 in series [2] (313.15 K).

With `CO` [methanol] + CN(C)C(=[NH2+])N(C)C.c1c[n-]cn1, the viscosity is recorded as 0.597 ± 0.013 mPa·s in series [1] (293.15 K); 0.559 ± 0.012 mPa·s in series [1] (298.15 K); 0.518 ± 0.011 mPa·s in series [1] (303.15 K); 0.493 ± 0.011 mPa·s in series [1] (308.15 K); 0.466 ± 0.01 mPa·s in series [1] (313.15 K). Further, the mass density in series [1] (293.15 K) amounted to 791.35 ± 0.17 kg/m3; in series [1] (298.15 K) it was 786.67 ± 0.18 kg/m3; in series [1] (303.15 K), 781.94 ± 0.18 kg/m3; in series [1] (308.15 K), 777.2 ± 0.18 kg/m3; in series [1] (313.15 K), 772.42 ± 0.18 kg/m3.

With `CCO` [ethanol], the viscosity in series [2] (293.15 K) came out at 1.186 ± 0.025 mPa·s; in series [2] (298.15 K), 1.083 ± 0.023 mPa·s; in series [2] (303.15 K) it was 0.987 ± 0.021 mPa·s; in series [2] (308.15 K) it was 0.903 ± 0.019 mPa·s; in series [2] (313.15 K) it was 0.829 ± 0.018 mPa·s. Moreover, the mass density turned out to be 789.51 ± 0.17 kg/m3 in series [2] (293.15 K); 785.4 ± 0.17 kg/m3 in series [2] (298.15 K); 780.83 ± 0.17 kg/m3 in series [2] (303.15 K); 776.48 ± 0.17 kg/m3 in series [2] (308.15 K); 772.15 ± 0.17 kg/m3 in series [2] (313.15 K).

As to `CCCO` [propan-1-ol] + CN(C)C(=[NH2+])N(C)C.c1c[n-]cn1, the viscosity in series [1] (293.15 K) is 2.217 ± 0.047 mPa·s; in series [1] (298.15 K), 1.955 ± 0.042 mPa·s; in series [1] (303.15 K), 1.736 ± 0.037 mPa·s; in series [1] (308.15 K), 1.55 ± 0.033 mPa·s; in series [1] (313.15 K), 1.389 ± 0.03 mPa·s. Besides, the mass density in series [1] (293.15 K) came to 803.75 ± 0.16 kg/m3; in series [1] (298.15 K) it was 799.71 ± 0.17 kg/m3; in series [1] (303.15 K), 795.65 ± 0.17 kg/m3; in series [1] (308.15 K), 791.56 ± 0.17 kg/m3; in series [1] (313.15 K), 787.42 ± 0.17 kg/m3.

Regarding `CCO` [ethanol] + CN(C)C(=[NH2+])N(C)C.c1c[n-]cn1, the viscosity in series [1] (293.15 K) is recorded as 1.186 ± 0.025 mPa·s; in series [1] (298.15 K), 1.083 ± 0.023 mPa·s; in series [1] (303.15 K), 0.987 ± 0.021 mPa·s; in series [1] (308.15 K) it was 0.903 ± 0.019 mPa·s; in series [1] (313.15 K), 0.829 ± 0.018 mPa·s. Further, the mass density in series [1] (293.15 K) is reported as 789.51 ± 0.17 kg/m3; in series [1] (298.15 K), 785.4 ± 0.17 kg/m3; in series [1] (303.15 K), 780.83 ± 0.17 kg/m3; in series [1] (308.15 K), 776.48 ± 0.17 kg/m3; in series [1] (313.15 K), 772.15 ± 0.17 kg/m3.

As for `CCCCO` [butan-1-ol], the viscosity is 2.918 ± 0.062 mPa·s in series [2] (293.15 K); 2.566 ± 0.055 mPa·s in series [2] (298.15 K); 2.272 ± 0.049 mPa·s in series [2] (303.15 K); 2.024 ± 0.043 mPa·s in series [2] (308.15 K); 1.81 ± 0.039 mPa·s in series [2] (313.15 K). In addition, the mass density in series [2] (293.15 K) worked out at 809.72 ± 0.16 kg/m3; in series [2] (298.15 K) it was 805.92 ± 0.16 kg/m3; in series [2] (303.15 K) it was 802.08 ± 0.16 kg/m3; in series [2] (308.15 K) it was 798.21 ± 0.16 kg/m3; in series [2] (313.15 K), 794.3 ± 0.17 kg/m3.

For `CN(C)C(=[NH2+])N(C)C.c1c[n-]cn1` [1,1,3,3-tetramethylguanidinium imidazol-1-ide], the viscosity in series [2] (293.15 K) is 8.952 ± 0.2 mPa·s; in series [2] (298.15 K), 7.287 ± 0.16 mPa·s; in series [2] (303.15 K), 6.044 ± 0.13 mPa·s; in series [2] (308.15 K), 5.097 ± 0.11 mPa·s; in series [2] (313.15 K), 4.358 ± 0.096 mPa·s. Further, the mass density is 997.25 ± 0.25 kg/m3 in series [2] (293.15 K); 992.8 ± 0.25 kg/m3 in series [2] (298.15 K); 988.35 ± 0.25 kg/m3 in series [2] (303.15 K); 983.9 ± 0.25 kg/m3 in series [2] (308.15 K); 979.46 ± 0.25 kg/m3 in series [2] (313.15 K).
